Measured values taken from article PMC5896266, “Development of Matrix Metalloproteinase-2 Inhibitors for Cardioprotection” (Frontiers in Pharmacology, 2018).
Where two headings read alike, the source gives them in different places.

How the values were obtained:
[1] = target: T1, MMP-1 (Homo sapiens, UniProt P03956); details: Figure 1, known MMP-2 inhibitors; cited from earlier work
T1 sequence (P03956 100-469): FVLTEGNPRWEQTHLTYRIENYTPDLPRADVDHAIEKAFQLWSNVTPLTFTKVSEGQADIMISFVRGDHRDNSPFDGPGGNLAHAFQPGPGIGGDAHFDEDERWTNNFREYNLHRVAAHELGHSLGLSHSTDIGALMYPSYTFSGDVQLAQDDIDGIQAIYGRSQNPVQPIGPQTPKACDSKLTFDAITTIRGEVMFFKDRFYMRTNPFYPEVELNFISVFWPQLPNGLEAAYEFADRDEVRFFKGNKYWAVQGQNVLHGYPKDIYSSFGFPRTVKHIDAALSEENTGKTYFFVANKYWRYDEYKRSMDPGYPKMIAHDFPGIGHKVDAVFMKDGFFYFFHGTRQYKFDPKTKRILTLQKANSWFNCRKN

[2] = tested on: MMP-2; details: Figure 1, known MMP-2 inhibitors; cited from earlier work
[3] = target: T2, Human MMP-2 catalytic domain (Homo sapiens, UniProt P08253, DEL222-396); assay: Fluorometric MMP-2 inhibition assay (MTS), catalytic domain; assay type: biochemical
T2 construct: Human MMP-2 catalytic domain (residues 110-221, 397-455); made in house
Experimental: In vitro MMP-2 activity was then measured, using a fluorometric assay in a 384 well format. Human MMP-2 catalytic domain (residues 110-221, 397-455) (Feng et al., [2000]) was expressed in E. coli in form of inclusion bodies. The protein was refolded and then purified by means of Ni-NTA affinity and anion exchange chromatography. Inhibition assays were carried out in 50 mM Tris, 5 mM CaCl2, 300 mM NaCl, 20 μM ZnSO4, pH = 7.5 buffer. For inhibition studies the catalytic domain of the enzyme was pre-incubated with varying amount of inhibitor for 30 min. […] After 1 h incubation at 37°C the fluorescence was detected using a Wallac 1420 Victor2 microplate reader at 320 nm/405 nm Ex/Em wavelength. As an alternative substrate we also used 5-FAM-Pro-Leu-Gly-Leu-Dap(QXL™ 520)-Ala-Arg-NH2, where the fluorescence was detected at 485 nm/520 nm. For each inhibitor candidate, the percentage of inhibition was determined in duplicate experiments at six inhibitor concentrations, chosen to observe a 5–95% range of inhibition.
Since hydroxamic acids are reported as the primary zinc-binding motif, we intended to select such a library from the AMRI 200,000 member non-exclusive compound repository as a starting point of our drug discovery efforts. Since only a few compounds were available in the repository as hydroxamic acids and the conversion of acids to hydroxamic acids were not applicable to HT parallel synthesis, we decided first to select free acids from the AMRI's compound collection. […] The selected acids were screened in a fluorescent assay using a recombinant human MMP-2 catalytic fragment and a synthetic peptide substrate. […] The hydroxamic acid pairs of the previously measured acids were then tested.

[4] = target: T1, MMP-1; assay: MMP-1 inhibition (inhibitory profile); assay type: biochemical; details: Table 2
Experimental: (§1) The compounds were measured for MMP-1, 2, 9, 13 to determine their inhibitory profile. Efficiency Index amplifies the two major required effects, selectivity against MMP-1 and the inhibitory activity.

[5] = target: T3, MMP-2 enzyme isolated from rat heart (Rattus norvegicus, UniProt P33436); assay: Gelatin zymography on cardiac MMP-2; assay type: biochemical; details: for inhibition at 100 µM: cardiac MMP-2, gelatin zymography, read-out: Inhibition (%)±SEM at 100 μM final MMP inhibitor concentration; for EC50: concentration labelled EC50 in Supplementary Figure 4, doses calculated according to IC doses in vitro
T3 construct: we used full-length, active MMP-2 enzymes isolated from healthy young adult rat hearts; from tissue; host or cells: rat heart homogenate (healthy young adult rats)
T3 sequence (P33436 110-662): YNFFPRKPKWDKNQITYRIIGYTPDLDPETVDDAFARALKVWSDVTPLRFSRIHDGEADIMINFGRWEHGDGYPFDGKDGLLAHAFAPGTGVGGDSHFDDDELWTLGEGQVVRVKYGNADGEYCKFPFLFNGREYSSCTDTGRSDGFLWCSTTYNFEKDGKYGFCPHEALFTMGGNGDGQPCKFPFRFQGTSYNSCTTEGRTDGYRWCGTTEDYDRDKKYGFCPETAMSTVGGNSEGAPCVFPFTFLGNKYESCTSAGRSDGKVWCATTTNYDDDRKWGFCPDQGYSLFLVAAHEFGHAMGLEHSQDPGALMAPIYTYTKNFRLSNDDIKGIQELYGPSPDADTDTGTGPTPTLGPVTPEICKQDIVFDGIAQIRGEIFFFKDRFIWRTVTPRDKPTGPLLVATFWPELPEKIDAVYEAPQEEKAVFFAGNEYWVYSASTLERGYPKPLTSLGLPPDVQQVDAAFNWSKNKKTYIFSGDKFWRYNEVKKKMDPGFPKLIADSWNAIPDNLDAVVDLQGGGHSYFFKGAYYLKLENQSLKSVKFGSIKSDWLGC
Experimental: Gelatin zymography was performed as described previously (Kupai et al., [2010]; Bencsik et al., [2017]). MMP-2 was isolated from rat heart homogenates as follows: 50 μg protein/lane were loaded and separated by electrophoresis under non-reducing conditions on an 8% SDS-polyacrylamide gels copolymerized with 2 mg/ml gelatin from porcine skin (Sigma-Aldrich; St. Louis, MO). After electrophoresis, gels were washed in 2.5% Triton-X 100 with gentle agitation and then incubated for 20 h at 37°C in zymography development buffer (50 mM Tris-HCl, pH 7.5, containing 5 mM CaCl2, 200 mM NaCl) in the presence or abscence of the MMP inhibitor compounds. Zymographic gels were stained in a 0.05% Coomassie Brilliant Blue R-250 solution followed by destaining, and then zymograms were scanned. MMP activity was detected as a colorless transparent zone on a blue background and the clear bands in the gel were quantified by densitometry using the Quantity One software (Bio-Rad, Hercules, CA). The obtained density values were measured and percentage of inhibition values were then calculated.
To confirm the MTS screen results, we tested the potential MMP inhibitor molecules on MMP-2 enzyme isolated from rat heart in vitro. Therefore, we applied the MMPIs at 1 and 100 μM final concentration in the enzyme's development buffer (Table 3).
After the chemical optimization of the novel MMP inhibitor lead candidates, we determined their IC50 values by using gelatin zymography. During zymographic analysis, we used full-length, active MMP-2 enzymes isolated from healthy young adult rat hearts. Subsequently, the cardio-cytoprotective effects of the selected candidates having the lowest IC50 values to MMP-2 were tested in cultured neonatal cardiac myocytes subjected to simulated I/R injury. Cardiac myocyte cell culture assay allowed a relatively high throughput biological efficacy testing (Gorbe et al., [2010]) of the selected lead candidates in several dose ranges at different levels of inhibition of MMP-2 activity.

[6] = target: MMP-13 (Homo sapiens, UniProt P45452); assay: MMP-13 inhibition (inhibitory profile); assay type: biochemical; details: Table 2
Experimental: as §1

[7] = target: MMP-9 (Homo sapiens, UniProt P14780); assay: MMP-9 inhibition (inhibitory profile); assay type: biochemical; details: Table 2
Experimental: as §1

[8] = Table 1, acids vs hydroxamic acids, catalytic fragment

Sequence of MMP-9 (P14780 94-707, species assumed): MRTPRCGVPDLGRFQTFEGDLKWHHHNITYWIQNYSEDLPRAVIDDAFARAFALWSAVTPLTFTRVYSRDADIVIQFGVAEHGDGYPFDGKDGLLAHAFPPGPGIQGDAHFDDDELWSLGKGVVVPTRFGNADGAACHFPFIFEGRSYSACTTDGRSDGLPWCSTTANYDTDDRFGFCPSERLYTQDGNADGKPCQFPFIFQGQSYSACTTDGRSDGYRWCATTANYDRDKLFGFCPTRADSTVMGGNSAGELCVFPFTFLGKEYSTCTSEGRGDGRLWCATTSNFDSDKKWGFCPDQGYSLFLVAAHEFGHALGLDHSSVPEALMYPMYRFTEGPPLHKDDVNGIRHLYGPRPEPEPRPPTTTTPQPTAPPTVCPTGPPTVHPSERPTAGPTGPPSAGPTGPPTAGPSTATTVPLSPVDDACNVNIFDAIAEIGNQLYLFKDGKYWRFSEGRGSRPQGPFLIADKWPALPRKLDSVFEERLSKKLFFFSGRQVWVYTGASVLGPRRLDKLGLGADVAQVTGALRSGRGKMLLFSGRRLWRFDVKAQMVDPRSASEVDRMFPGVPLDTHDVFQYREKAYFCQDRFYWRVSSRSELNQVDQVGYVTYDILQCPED
T2 sequence (P08253 with tags, fused parts or gaps DEL222-396 limits assumed): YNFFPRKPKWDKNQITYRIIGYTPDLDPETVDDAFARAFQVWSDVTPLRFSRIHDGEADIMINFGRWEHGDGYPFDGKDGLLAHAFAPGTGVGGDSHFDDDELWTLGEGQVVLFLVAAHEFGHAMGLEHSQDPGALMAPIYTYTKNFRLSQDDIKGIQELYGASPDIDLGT

Row | IC50 [3, 8] | IC50 [4] | inhibition at 100 µM [5] | IC50 ([3]; Table 2) | IC50 [6] | IC50 [7] | EC50 [5] | SMILES | IC50 [1] | IC50 [2]
1 |  |  |  |  |  |  |  | CC1(C)OCC(C(CS(=O)(=O)c2ccc(Oc3ccc(OC(F)(F)F)cc3)cc2)N(O)C=O)O1 (stereo not drawn) [ABT-518] | 8.9 µM | 0.0008 µM
2 | 12 µM |  |  |  |  |  |  | O=C(NO)c1csc(CN(Cc2ccc(F)cc2)Cc2ccc(OCc3ccccc3)cc2)n1 [AMRI-101H] |  | 
3 | 6.2 µM |  |  |  |  |  |  | O=C(O)c1csc(CN(Cc2cccc(Cl)c2)Cc2cccc(C(F)(F)F)c2)n1 [AMRI-102A] |  | 
4 | 11 µM |  |  |  |  |  |  | O=C(NO)c1csc(CN(Cc2cccc(Cl)c2)Cc2cccc(C(F)(F)F)c2)n1 [AMRI-102H] |  | 
5 | 7.6 µM |  |  |  |  |  |  | O=C(O)c1csc(CN(CCC(c2ccccc2)c2ccccc2)Cc2ccccc2F)n1 [AMRI-103A] |  | 
6 | 17.6 µM |  |  |  |  |  |  | O=C(NO)c1csc(CN(CCC(c2ccccc2)c2ccccc2)Cc2ccccc2F)n1 [AMRI-103H] |  | 
7 |  | 6.8 µM | 11.1 ± 1.58% | 25 µM | 4.7 µM |  |  | O=C(O)c1csc(CN(Cc2ccc(OCc3ccccc3)cc2)Cc2cccc(F)c2)n1 [MMPI-1133] |  | 
8 |  | 12 µM | 81.1 ± 3.88% | 20 µM | 2.6 µM | 39 µM |  | O=C(O)C(c1ccccc1)N(Cc1ccc(OCc2ccccc2)cc1)Cc1cccc(F)c1 (stereo not drawn) [MMPI-1140] |  | 
9 |  | 26 µM | 47 ± 19.1% | 25 µM | 1.76 µM | 10 µM |  | O=C(O)c1csc(CN(Cc2ccc(OCc3ccccc3)cc2)C(c2ccccc2)c2ccccc2)n1 [MMPI-1155] |  | 
10 | 3.4 µM |  | 100% |  | 1.6 µM | 15 µM | 18 µM | O=C(O)c1csc(CN(Cc2ccc(F)cc2)Cc2ccc(OCc3ccccc3)cc2)n1 [MMPI-1157] |  | 
11 |  | 16 µM | 100% | 35 µM | 0.28 µM | 8 µM |  | O=C(O)c1c[nH]c(CN(Cc2ccc(F)cc2)Cc2ccc(OC(c3ccccc3)c3ccccc3)cc2)n1 [MMPI-1245] |  | 
12 |  | 33 µM | 100% | 15 µM | 3.3 µM | 100 µM | 16 µM | Cc1ccc(CN(Cc2ccc(OCc3ccccc3)cc2)Cc2nc(C(=O)O)c[nH]2)cc1 [MMPI-1247] |  | 
13 |  | 47 µM | 100% | 8 µM | 1.24 µM | 8.8 µM | 9 µM | O=C(O)c1csc(CN(Cc2ccc(F)cc2)Cc2ccc(OCc3ccncc3)cc2)n1 [MMPI-1248] |  | 
14 |  | 115 µM | 100% | 54 µM | 1.5 µM | ≥ 500 µM |  | O=C(O)c1csc(CN(Cc2ccncc2)Cc2ccc(OCc3ccccc3)cc2)n1 [MMPI-1252] |  | 
15 |  | 240 µM | 100% | 90 µM | 8 µM | ≥ 500 µM |  | O=C(O)c1csc(CN(Cc2ccc(OCc3ccccc3)cc2)Cc2cccnc2)n1 [MMPI-1253] |  | 
16 |  | 17 µM | 100% | 30 µM | 3 µM | 20 µM | 32 µM | O=C(O)c1csc(CN(Cc2ccc(F)cc2)Cc2ccc(-c3ccccc3)cc2)n1 [MMPI-1254] |  | 
17 |  | 51 µM | 100% | 5.7 µM | 2.5 µM | 37 µM | 17.7 µM | O=C(O)c1csc(CN(Cc2ccc(F)cc2)Cc2ccc(OCc3cccnc3)cc2)n1 [MMPI-1260] |  | 
